Experiment [1] relates to rat myocardial I/R model. Description: Myocardial infarction area by TTC staining. It is filed as in vivo. To be noted: for infarction region on TTC-stained heart slices, in contrast to I/R group / inhibition of the increase of the myocardial infarction area percentage caused by I/R: 5 mg/kg BW/h intravenous drip, 60 min after reperfusion, FIG. 6A. As for the experimental part: The rats were anesthetized by intramuscularly injecting 20 wt % urethane (1.25 g/kg) and fixed in the supine position. Neck skin was incised and anterior cervical muscles were separated to expose the trachea. Tracheal intubation was performed. Another end of the intubation was attached to a Small Animal Ventilator (ALC-V8, Shanghai Aoteshai Biology Science and Technology Limited Company, Shanghai, China) so as to carry out pressure breathing under the following conditions: a respiratory ratio of 1:1, a respiratory frequency of 75 times/min and a tidal volume of 12 mL/kg. The rectal temperature, measured with YSI REF 401 (Yellow Spring, Ohio, USA), was maintained at 37 37.5° C. by using a thermal blanket. The chest was sterilized and opened at the intercostal space between 2nd 4th ribs near the left and right sternal border to expose the heart. The 3⁄8 curved needle threaded with 3-0 suture was used to pass through the site at 1 2 mm below the juncture of the pulmonary artery cone and the left atrial appendage. The suture was ligated. A polyethylene tubule was placed between the silk suture and myocardial tissue, the silk suture was […] to cause ischemia. Ligature was released 30 min later to establish an I/R model. Danshensu+I/R group (DLA+I/R group): a Danshensu aqueous solution (in normal saline, 1.25 mg/ml) was administrated at a dosage of 5 mg/kg BW/h by intravenous drip 20 min before the experiment and continued until the end of the entire experiment. Notoginsenoside R1+I/R group (R1+I/R group): a Notoginsenoside R1 aqueous solution (in normal saline, 1.25 mg/ml) was administrated at a dosage of 5 mg/kg BW/h by intravenous drip 20 min before the experiment and continued until the end of the entire experiment. Danshensu:R1(4:1)+I/R group (DR(4:1)+I/R group): an aqueous solution of Danshensu and Notoginsenoside R1 at a weight ratio of 4:1, dissolved in normal saline (1.25 mg/ml, namely, in the solution, the concentration of Danshensu is 1 mg/ml and the concentration of Notoginsenoside R1 is 0.25 mg/ml), was administrated at a dosage of 5 mg/kg BW/h (namely, in the total dosage, the dosage of Danshensu is 4 mg/kg BW/h and the dosage of Notoginsenoside R1 is 1 mg/kg BW/h) by intravenous drip 20 min before the experiment and continued until the end of the entire experiment. Danshensu:R1 (1:1)+I/R group (DR(1:1)+IR group): an aqueous solution of Danshensu and Notoginsenoside R1 at a weight ratio of 1:1, dissolved in normal saline (1.25 mg/ml, namely, in the solution, the concentration of Danshensu is 0.625 mg/ml and the concentration of Notoginsenoside R1 is 0.625 mg/ml), was administrated at a dosage of 5 mg/kg BW/h (namely, in the total dosage, the dosage of Danshensu is 2.5 mg/kg BW/h and the dosage of Notoginsenoside R1 is 2.5 mg/kg BW/h) by intravenous drip 20 min before the experiment and continued until the end of the entire experiment. Danshensu:R1 (0.25:1)+I/R group (DR(0.25:1)+IR group): an aqueous solution of Danshensu and Notoginsenoside R1 at a weight ratio of 0.25:1, dissolved in normal saline (1.25 mg/ml, namely, in the solution, the concentration of Danshensu is 0.25 mg/ml and the concentration of Notoginsenoside R1 is 1.0 mg/ml), was administrated at a dosage of 5 mg/kg BW/h (namely, in the total dosage, the dosage of Danshensu is 1 mg/kg BW/h and the dosage of Notoginsenoside R1 is 4 mg/kg BW/h) by intravenous drip 20 min before the experiment and continued until the end of the entire experiment. […]

In experiment [2] the test system is rat myocardial I/R model. The experiment is described as follows: FITC-labeled plasma albumin leakage from the venules of heart coronary vessels. It is filed as in vivo. The conditions noted are these: 5 mg/kg BW/h intravenous drip, 60 min after reperfusion; for FITC-labeled albumin leakage from the venules of the coronary vessels (images): FIG. 3A; for inhibitory effect on FITC-labeled albumin leakage (ratio of fluorescence intensity outside to inside the venules): FIG. 3B. As for the experimental part:
The rats were anesthetized by intramuscularly injecting 20 wt % urethane (1.25 g/kg) and fixed in the supine position. Neck skin was incised and anterior cervical muscles were separated to expose the trachea. Tracheal intubation was performed. Another end of the intubation was attached to a Small Animal Ventilator (ALC-V8, Shanghai Aoteshai Biology Science and Technology Limited Company, Shanghai, China) so as to carry out pressure breathing under the following conditions: a respiratory ratio of 1:1, a respiratory frequency of 75 times/min and a tidal volume of 12 mL/kg. The rectal temperature, measured with YSI REF 401 (Yellow Spring, Ohio, USA), was maintained at 37 37.5° C. by using a thermal blanket. The chest was sterilized and opened at the intercostal space between 2nd 4th ribs near the left and right sternal border to expose the heart. The 3⁄8 curved needle threaded with 3-0 suture was used to pass through the site at 1 2 mm below the juncture of the pulmonary artery cone and the left atrial appendage. The suture was ligated. A polyethylene tubule was placed between the silk suture and myocardial tissue, the silk suture was […] to cause ischemia. Ligature was released 30 min later to establish an I/R model. Danshensu+I/R group (DLA+I/R group): a Danshensu aqueous solution (in normal saline, 1.25 mg/ml) was administrated at a dosage of 5 mg/kg BW/h by intravenous drip 20 min before the experiment and continued until the end of the entire experiment. Notoginsenoside R1+I/R group (R1+I/R group): a Notoginsenoside R1 aqueous solution (in normal saline, 1.25 mg/ml) was administrated at a dosage of 5 mg/kg BW/h by intravenous drip 20 min before the experiment and continued until the end of the entire experiment. Danshensu:R1(4:1)+I/R group (DR(4:1)+I/R group): an aqueous solution of Danshensu and Notoginsenoside R1 at a weight ratio of 4:1, dissolved in normal saline (1.25 mg/ml, namely, in the solution, the concentration of Danshensu is 1 mg/ml and the concentration of Notoginsenoside R1 is 0.25 mg/ml), was administrated at a dosage of 5 mg/kg BW/h (namely, in the total dosage, the dosage of Danshensu is 4 mg/kg BW/h and the dosage of Notoginsenoside R1 is 1 mg/kg BW/h) by intravenous drip 20 min before the experiment and continued until the end of the entire experiment. […] Under an upright fluorescence microscope (USS-301, Leica, US), fluorescence image of each group was recorded with SIT camera by using a light at 455 nm as an exciting light and a mercury lamp (100 W) as an emission source. FITC fluorescence intensities inside the venules and the adjacent extravascular interstitial substance were measured with Image-Pro Plus 5.0 software, respectively. […]

SMILES strings stand for the structures.

Here are results for two compounds from US9034398B2, “Traditional Chinese drug comprising Danshen extracts and Sanqi extracts and use thereof” (TASLY Pharmaceutical Group Co., LTD., priority 2009, dated 2015).

For `O=C(O)C(O)Cc1ccc(O)c(O)c1` (stereo not drawn) [Danshensu, (3,4-dihydroxyphenyl)lactic acid], in the experiment with rat myocardial I/R model [1], the “infarction region on TTC-stained heart slices, in contrast to I/R group” value was “decreased obviously” and the “inhibition of the increase of the myocardial infarction area percentage caused by I/R” value is reported as “significantly suppress”. Besides, in the experiment on rat myocardial I/R model [1] (rats, summary statement of the description), the “reduction of the percentage of the myocardial infarction area after I/R (summary)” value was “can reduce”. Also, in the experiment with rat myocardial I/R model [2], the “FITC-labeled albumin leakage from the venules of the coronary vessels (images)” value was “can also be observed” and the “inhibitory effect on FITC-labeled albumin leakage (ratio of fluorescence intensity outside to inside the venules)” value was “Significant inhibitory effect on FITC-labeled albumin leakage has not been observed”.
`CC(C)=CCC[C@](C)(O[C@@H]1O[C@H](CO)[C@@H](O)[C@H](O)[C@H]1O)[C@H]1CC[C@]2(C)[C@@H]1[C@H](O)C[C@@H]1[C@@]3(C)CC[C@H](O)C(C)(C)[C@@H]3[C@@H](O[C@@H]3O[C@H](CO)[C@@H](O)[C@H](O)[C@H]3O[C@@H]3OC[C@@H](O)[C@H](O)[C@H]3O)C[C@]12C` [Notoginsenoside R1]: in the experiment on rat myocardial I/R model [1], the “infarction region on TTC-stained heart slices, in contrast to I/R group” value is “decreased slightly” and the “inhibition of the increase of the myocardial infarction area percentage caused by I/R” value is recorded as “has not significantly inhibited”. In the experiment with rat myocardial I/R model [2], the “FITC-labeled albumin leakage from the venules of the coronary vessels (images)” value is listed as “can also be observed” and the “inhibitory effect on FITC-labeled albumin leakage (ratio of fluorescence intensity outside to inside the venules)” value was “Significant inhibitory effect on FITC-labeled albumin leakage has not been observed”.
